Assay results taken from PubChem BioAssay (NCI).
“And” between values parts separate entries of the source, which are not always exact repeats. Identical values can stand only once.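 Compound exposure: 48 hours, 5 concentrations, 96-well plates. The concentration for 50% growth inhibition is given as GI50. Definition used: TGI = concentration required for complete inhibition of growth.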

Columns and labels:
Test in all cases: DTP human tumour cell line panel, 48 h
[1] = system: ACHN renal
[2] = system: CCRF-CEM leukemia
[3] = system: HCT-15 colon
[4] = system: LOX IMVI melanoma
[5] = system: MOLT-4 leukemia
[6] = system: NCI-H23 lung
[7] = system: SN12C renal
[8] = system: T-47D breast
[9] = system: U251 CNS
[10] = system: UO-31 renal

SMILES	GI50 [1] [µM]	GI50 [2] [µM]	TGI [2]	GI50 [3] [µM]	TGI [3]	GI50 [4] [µM]	TGI [4]	GI50 [5]	TGI [5] [µM]	GI50 [6] [µM]	TGI [6] [µM]	GI50 [7] [µM]	TGI [7]	GI50 [8] [µM]	TGI [8] [µM]	GI50 [9] [µM]	TGI [9] [µM]	GI50 [10] [µM]	TGI [10]	TGI [1] [µM]
CC(C)[C@@]12C[C@@H](OC(=O)COC(=O)c3ccccc3)[C@@](C)(O1)[C@@H]1CC[C@@H](C)[C@H]1[C@@H]2OC(=O)/C=C/c1ccccc1	0.0469	> 100	> 100 µM	> 89	> 100 µM	> 63.4	> 100 µM	> 100 µM	> 100	> 100	> 100	7.35	> 100 µM	> 34.6	> 100	> 100	> 100	0.115	1.66 µM	
COc1ccc(-c2nc3sccn3c2-c2ccnc(NCCNS(=O)(=O)c3ccc(C(F)(F)F)cc3)n2)cc1	2.58	0.37	> 100 µM	2.59	> 100 µM	3.26	19.2 µM	0.503 µM	> 100	3.56	62.3	0.688	8.38 µM	1.69	> 100	4.45	> 100	1.09	> 100 µM	> 100
COc1ccc(N=Nc2ccc(O)c(=O)cc2)cc1	3.37	2.18	9.94 µM	2.55	> 100 µM	2.44	27 µM	3.69 µM	> 100	3.02	> 100	2.82	> 100 µM	2.64	> 100	3.2	> 100	2.91	> 100 µM	> 100
O=C(O)CN1C(=O)OC(c2ccccc2)C1=O (configuration not stated)			> 100 µM		> 100 µM		> 100 µM		> 100		> 100		> 100 µM		> 100		> 100		> 100 µM	> 100
O=C(CCN1CCCCC1)c1csc2ccccc12					> 100 µM		> 100 µM		> 100		> 100		> 100 µM		> 100		> 100		> 100 µM	> 100
COC(=O)C1c2cc3c(c(O)c2CCC1(C)O)C(=O)c1c(O)cc2c(c1C3=O)OC1OC2(C)C(O)C(N(C)C)C1O (configuration not stated)					1.7 µM		1.4 µM		0.357		1.99		3.84 µM		1.61		1.71		4.62 µM	1.17
CCCCCc1cc(/C=C2/N=C(c3ccc[nH]3)C=C2OC)[nH]c1C			0.209 µM		1.05 µM				0.134		0.346		0.844 µM		0.421		0.153		< 0.0193 µM	0.113
CCN1C(=O)/C(=c2\sc3n(c2=O)C2C(NN=3)N(CC)C(=O)N2CC)c2ccccc21 (configuration not stated)	0.726	0.433	> 100 µM	0.394	> 100 µM	0.666	26.6 µM	0.82 µM	> 100	0.808	17.6	0.615	> 100 µM			0.577	30.1	0.846	> 100 µM	> 47.9
CCOC(=O)C1=C(C)NC2SC(=O)/C(=C\c3cccc(Cl)c3)N2C1c1ccccc1 (configuration not stated)	> 100	> 100	> 100 µM	> 100	> 100 µM	> 100	> 100 µM			> 100	> 100	> 100	> 100 µM	> 100	> 100	> 100	> 100	> 100	> 100 µM	> 100
O=C1CCc2cc(Br)ccc2O1			> 100 µM		> 100 µM		> 100 µM		> 100		> 100		> 100 µM		> 100		> 100			> 100
CCCCCCCCCCCCC(O)C1CCC(C(O)CCCCC(O)CCCCCC2CC(CC(C)=O)C(=O)O2)O1 (configuration not stated)			5.6 µM and 8.12 µM	2.56	5.23 µM and 17.9 µM	1.06	2.24 µM and 9.49 µM	1.94 µM and 2.05 µM	35		13.6	2.54	8.27 µM and 20.2 µM				18.2	1.06	3.81 µM and 14 µM	26.1
CC1(C)CC[C@]23CC[C@]4(C)[C@H](CC[C@@H]5[C@@]6(C)CCCNC(C)(C)[C@@H]6CC[C@]54C)[C@H]2[C@H]1OC3	1.71	2.32	6.73 µM	1.31	2.68 µM			2.1 µM	5.04	1.76	3.5	1.68	3.2 µM	1.71	3.69	1.74	3.23	1.56	3 µM	3.08
CCOC(=O)CCc1c(C)c2c(OC)cc(OC)cc2oc1=O							> 100 µM				> 100		> 100 µM				> 100		> 100 µM	> 100
CCN(N=O)C1C2(CCCC2)NC(=O)C12CCCC2 (configuration not stated)			> 100 µM		> 100 µM		> 100 µM		> 100		> 100		> 100 µM				> 100		> 100 µM	> 100
CC(=O)[O-].CC(=O)[O-].O=C([CH-]C(=O)c1ccccc1)c1ccccc1.[Nd+3].[OH3+]	31.3			19.4	> 100 µM	22.4	> 100 µM	10.6 µM	> 100	18.7	57.7	23.5	92.3 µM			16.7	> 100	17	49.3 µM	> 100
O=C(O)C1=Cc2cccc3cccc(c23)C1=O			> 100 µM		> 100 µM		> 100 µM		> 100		> 100		> 100 µM				> 100		> 100 µM	> 100
CC(=O)OC(C(=O)[O][Ge]([CH3])([CH3])[CH3])c1ccccc1 (configuration not stated)	> 100			> 100	> 100 µM	> 100	> 100 µM			> 100	> 100	> 100	> 100 µM			> 100	> 100	> 100	> 100 µM	> 100
